Patent EP0489404A2, “Method of treating shock using a potassium channel activator” (E.R. SQUIBB & SONS, INC., priority 1990, dated 1992)

Experiments:
[1] = system: Ischemic Isolated Rat Heart; assay: Globally ischemic isolated perfused rat heart (Langendorff), protective effect; set-up: species or system Male Sprague-Dawley rats; LDH (Lactate Dehydrogenase Release), Reperfusion (Post-Ischemic Event): unit not given here; details: 10 µM; for FLOW (coronary flow), Pre-ischemic Event (Post Drug) / HR (Heart Rate), Pre-ischemic Event (Post Drug) / LVDP (Left Ventricular Developed Pressure), Pre-ischemic Event (Post Drug): after 10 minutes drug treatment, n = 4; for FLOW (coronary flow), Pre-ischemic Event (Post Drug) / HR (Heart Rate), Pre-ischemic Event (Post Drug) / LVDP (Left Ventricular Developed Pressure), Pre-ischemic Event (Post Drug) / DP (Double Product), Pre-ischemic Event (Post Drug): before ischemia; for DP (Double Product), Pre-ischemic Event (Post Drug) / DP (Double Product), Reperfusion (Post-Ischemic Event): HR x LVDP divided by 1000; for DP (Double Product), Pre-ischemic Event (Post Drug): lower = more cardiodepressant; for FLOW (coronary flow), Reperfusion (Post-Ischemic Event) / HR (Heart Rate), Reperfusion (Post-Ischemic Event) / LVDP (Left Ventricular Developed Pressure), Reperfusion (Post-Ischemic Event) / DP (Double Product), Reperfusion (Post-Ischemic Event) / LDH (Lactate Dehydrogenase Release), Reperfusion (Post-Ischemic Event): occlusion 25 minutes, reperfusion 30 minutes; for DP (Double Product), Reperfusion (Post-Ischemic Event): higher = more cardioprotective; for LDH (Lactate Dehydrogenase Release), Reperfusion (Post-Ischemic Event): lower = greater cardioprotection
Excerpt: Grover et al., "Dissociation of Cardiodepression from Cardioprotection with Calcium Antagonists: Diltiazem Protects Ischemic Rat Myocardium with a Lower Functional Cost as Compared with Verapamil and Nifedipine", Journal of Cardiovascular Pharmacology; pages 331-340, Vol. 14, No. 2 (1989), describe a model for testing globally ischemic, isolated rat hearts. This model is expected to be a reliable indicator of protection since the laboratory-induced isolation and ischemic event including perfusion with a cardioplegic solution, reasonably duplicates the environment and conditions for the heart during and after a shock or trauma episode. Grover et al. express the efficacy of protective agents as the amount of lactate dehydrogenase (LDH) release and post-ischemic cardiac function. Lactate dehydrogenase is an enzyme released in the heart during an ischemic event and is an index of cardiac cell necrosis. In the Grover et al. model, this is measured during reperfusion and an agent which provides for lower release levels of LDH is considered to offer greater cardioprotection since lower LDH indicates a smaller infarct size. Cardiac function is determined using the double product (DP) of heart rate times the left ventricular developed pressure (LVDP) divided by 1,000.
The lower the value for DP before the ischemic isolation of the heart for a given agent, the more cardiodepressant it is considered to be and the higher the value of DP is during reperfusion, the more cardioprotective the agent is.
Male Sprague-Dawley rats (450-550 g) were used in all experiments. The rats were anesthetized using 30 mg/kg sodium pentobarbital (i.p.). They were intubated and then treated with i.v. heparin (1000 U/kg). While being mechanically ventilated, their hearts were perfused in situ via retrograde cannulation of the aorta. The hearts were then excised and quickly moved to a Langendorff apparatus where they were perfused with Krebs-Henseleit bicarbonate buffer (112 mM […], 25 mM NaHCO₃, 5 mM KCl, 1.2 mM MgSO₄, 1 mM KH₂PO₄, 1.25 mM CaCl₂, 11.5 mM dextrose, and 2 mM pyruvate bubbled with 95% O₂ - 5% CO₂) at a constant pressure (75 mm Hg). A water filled latex balloon attached to a metal cannula was then inserted into the left ventricle and connected to a Statham pressure transducer for measurement of left ventricular pressure. The hearts were allowed to equilibrate for 15 minutes at which time end diastolic pressure (EDP) was adjusted to 5 mm Hg and this was maintained for 5 minutes. Pre-ischemia or pre-drug function, heart rate and coronary flow (extracorporeal electromagnetic flow probe, Carolina Medical Electronics, King, N.C.) were then measured. Cardiac function was determined using the double product of heart rate (HR) X left ventricular developed pressure (LVDP) divided by 1000. Cardiac temperature was maintained throughout the experiment by submerging the hearts in 37°C buffer which was allowed to accumulate in a stoppered, heated chamber.
Once the baseline measurements were taken, the hearts were treated with 10 µM cromakalim, compounds C', C'', E', E'', F', F'' (n = 4 each) or with vehicle buffer (0.01% DMSO, n = 7). All of these hearts were treated with their respective drugs or vehicle for ten minutes. At this time, post-drug cardiac function and flow were measured and then the hearts were made globally ischemic by shutting off the buffer perfusion. The ischemia was maintained for 25 minutes, the hearts were then reperfused with nondrug treated buffer. Reperfusion was maintained for a total of 30 minutes and at this time reperfusion function and flow were again determined.

rat aorta = assay: Inhibition of agonist-induced constriction in rat aorta (vasodilation, non-ischemic tissue); details: concentration inhibiting agonist-induced constriction by 50 percent, normal
Excerpt: Also included in the TABLE are the IC₅₀(m) values for rat aorta. The IC₅₀ (rat aorta) value is the concentration of the particular compound which inhibits agonist-induced constriction in rat aorta by 50 percent. Thus, the lower values indicate greater vasodilation and it should be noted that these values are for normal, i.e., non-ischemic, tissue. It can be seen that cromakalim with an IC₅₀ of 5.7 x 10⁻⁸ m is a relatively potent vasodilator in non-ischemic tissue.

## CC1(C)Oc2ccc(C#N)cc2[C@@H](NC(=S)Nc2ccccc2)[C@@H]1O [E']
[1]
  FLOW (coronary flow), Pre-ischemic Event (Post Drug): 15.3
  HR (Heart Rate), Pre-ischemic Event (Post Drug): 236 beats/min
  LVDP (Left Ventricular Developed Pressure), Pre-ischemic Event (Post Drug): 141 mmHg
  DP (Double Product), Pre-ischemic Event (Post Drug): 32.75
  FLOW (coronary flow), Reperfusion (Post-Ischemic Event): 13.4
  HR (Heart Rate), Reperfusion (Post-Ischemic Event): 229 beats/min
  LVDP (Left Ventricular Developed Pressure), Reperfusion (Post-Ischemic Event): 55 mmHg
  DP (Double Product), Reperfusion (Post-Ischemic Event): 14.83
  LDH (Lactate Dehydrogenase Release), Reperfusion (Post-Ischemic Event): 13.46
[1]; listed as E"
  FLOW (coronary flow), Pre-ischemic Event (Post Drug): 24.8
  HR (Heart Rate), Pre-ischemic Event (Post Drug): 234 beats/min
  LVDP (Left Ventricular Developed Pressure), Pre-ischemic Event (Post Drug): 128 mmHg
  DP (Double Product), Pre-ischemic Event (Post Drug): 30.06
  DP (Double Product), Reperfusion (Post-Ischemic Event): 18.52
  FLOW (coronary flow), Reperfusion (Post-Ischemic Event): 17.56
  HR (Heart Rate), Reperfusion (Post-Ischemic Event): 230 beats/min
  LVDP (Left Ventricular Developed Pressure), Reperfusion (Post-Ischemic Event): 81 mmHg
  LDH (Lactate Dehydrogenase Release), Reperfusion (Post-Ischemic Event): 8.77
Rat aorta
  IC50: 1710 nM
Rat aorta; listed as E"
  IC50: 805 nM

## CC1(C)Oc2ccc(C#N)cc2[C@@H](NC(=NC#N)Nc2ccccc2)[C@@H]1O [C'"]
[1]
  FLOW (coronary flow), Pre-ischemic Event (Post Drug): 15.2
  HR (Heart Rate), Pre-ischemic Event (Post Drug): 244 beats/min
  LVDP (Left Ventricular Developed Pressure), Pre-ischemic Event (Post Drug): 134 mmHg
  DP (Double Product), Pre-ischemic Event (Post Drug): 32.7
  FLOW (coronary flow), Reperfusion (Post-Ischemic Event): 13.2
  HR (Heart Rate), Reperfusion (Post-Ischemic Event): 244 beats/min
  LVDP (Left Ventricular Developed Pressure), Reperfusion (Post-Ischemic Event): 74 mmHg
  DP (Double Product), Reperfusion (Post-Ischemic Event): 18.2
  LDH (Lactate Dehydrogenase Release), Reperfusion (Post-Ischemic Event): 10.41
[1]; listed as C"
  FLOW (coronary flow), Pre-ischemic Event (Post Drug): 20.4
  HR (Heart Rate), Pre-ischemic Event (Post Drug): 250 beats/min
  LVDP (Left Ventricular Developed Pressure), Pre-ischemic Event (Post Drug): 121 mmHg
  DP (Double Product), Pre-ischemic Event (Post Drug): 29.8
  DP (Double Product), Reperfusion (Post-Ischemic Event): 14.8
  FLOW (coronary flow), Reperfusion (Post-Ischemic Event): 10.1
  HR (Heart Rate), Reperfusion (Post-Ischemic Event): 240 beats/min
  LVDP (Left Ventricular Developed Pressure), Reperfusion (Post-Ischemic Event): 62 mmHg
  LDH (Lactate Dehydrogenase Release), Reperfusion (Post-Ischemic Event): 9.88
Rat aorta
  IC50: 1370 nM
Rat aorta; listed as C"
  IC50: 447 nM

## CC1(C)Oc2ccc(C#N)cc2C(N2CCCC2=O)C1O (stereo not shown) [Cromakalim, cromakalim, reference compound]
[1]
  FLOW (coronary flow), Pre-ischemic Event (Post Drug): 23.9
  HR (Heart Rate), Pre-ischemic Event (Post Drug): 250 beats/min
  LVDP (Left Ventricular Developed Pressure), Pre-ischemic Event (Post Drug): 131 mmHg
  DP (Double Product), Pre-ischemic Event (Post Drug): 33.0
  FLOW (coronary flow), Reperfusion (Post-Ischemic Event): 13.9
  HR (Heart Rate), Reperfusion (Post-Ischemic Event): 234 beats/min
  LVDP (Left Ventricular Developed Pressure), Reperfusion (Post-Ischemic Event): 87 mmHg
  DP (Double Product), Reperfusion (Post-Ischemic Event): 20.5
  LDH (Lactate Dehydrogenase Release), Reperfusion (Post-Ischemic Event): 8.89
Rat aorta; Rattus norvegicus
  IC50: 57 nM

## CC1(C)Oc2ccc(C#N)cc2[C@@H](NC(=NC#N)Oc2ccccc2)[C@@H]1O [F']
[1]
  FLOW (coronary flow), Pre-ischemic Event (Post Drug): 16.0
  HR (Heart Rate), Pre-ischemic Event (Post Drug): 238 beats/min
  LVDP (Left Ventricular Developed Pressure), Pre-ischemic Event (Post Drug): 128 mmHg
  DP (Double Product), Pre-ischemic Event (Post Drug): 30.5
  FLOW (coronary flow), Reperfusion (Post-Ischemic Event): 10.4
  HR (Heart Rate), Reperfusion (Post-Ischemic Event): 212 beats/min
  LVDP (Left Ventricular Developed Pressure), Reperfusion (Post-Ischemic Event): 28 mmHg
  DP (Double Product), Reperfusion (Post-Ischemic Event): 6.2
  LDH (Lactate Dehydrogenase Release), Reperfusion (Post-Ischemic Event): 21.7
[1]; listed as F"
  FLOW (coronary flow), Pre-ischemic Event (Post Drug): 28.3
  HR (Heart Rate), Pre-ischemic Event (Post Drug): 239 beats/min
  LVDP (Left Ventricular Developed Pressure), Pre-ischemic Event (Post Drug): 159 mmHg
  DP (Double Product), Pre-ischemic Event (Post Drug): 38.02
  DP (Double Product), Reperfusion (Post-Ischemic Event): 14.72
  FLOW (coronary flow), Reperfusion (Post-Ischemic Event): 13.92
  HR (Heart Rate), Reperfusion (Post-Ischemic Event): 247 beats/min
  LVDP (Left Ventricular Developed Pressure), Reperfusion (Post-Ischemic Event): 59 mmHg
  LDH (Lactate Dehydrogenase Release), Reperfusion (Post-Ischemic Event): 10.65
Rat aorta
  IC50: > 100000 nM
Rat aorta; listed as F"
  IC50: 4900 nM
